This passage reports IC50 and CPE inhibition results from PubChem BioAssay AID540264 (Southern Research Specialized Biocontainment Screening …, 2011).

Where “and” joins values, the source holds several entries; their conditions need not be identical. Identical values can stand only once. Calls of active or inactive are those of the source.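 How the source made its calls: active means CPE inhibition of 50% or more; inactive means the rest.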

Assay [1] concerns HEp-2 RSV Long CPE inhibition, luminescence. Put plainly: RSV cytopathic effect inhibitors, dose response, cell-based, RSV Long, luminescence, synthesized compounds, set 11 (AID 540264).
Test in assay [2]: as above
The settings on record: HEp-2 RSV Long CPE inhibition, luminescence; at 200 µM (top of the series).

Turning to `Cc1ccc(Cn2c(=O)n(Cc3ccc(C(=O)NC(C)(C)C)cc3)c(=O)c3ccccc32)cc1`, in assay [1], the IC50 is 1.8 µM. For the compound `COCCCNC(=O)c1ccc(Cn2c(=O)c3ccccc3n(Cc3cccc(Br)c3)c2=O)cc1`, the IC50 in assay [1] is 2.15 µM. In the case of `Cc1ccc(Cn2c(=O)n(Cc3ccc(C(=O)Nc4ccncc4)cc3)c(=O)c3ccccc32)cc1`, the half-inhibitory concentration (IC50) in assay [1] is 6.29 µM.

In the case of `Cc1ccc(Cn2c(=O)n(Cc3ccc(C(=O)NCCCN(C)C)cc3)c(=O)c3ccccc32)cc1`, the IC50 in assay [1] was 9.29 µM. On to `COCCCNC(=O)c1ccc(Cn2c(=O)c3ccccc3n(Cc3ccc(F)cc3)c2=O)cc1`, for which the IC50 in assay [1] was 5 µM.

In the case of `COCCCNC(=O)c1ccc(Cn2c(=O)c3cc(Cl)ccc3n(Cc3ccc(C)cc3)c2=O)cc1`, the CPE inhibition in assay [2] is 5.48% (inactive). As to `CCOCCCNC(=O)c1ccc(Cn2c(=O)c3ccccc3n(Cc3ccc(C)cc3)c2=O)cc1`, the IC50 in assay [1] was 1.72 µM. On to `COCCCNC(=O)c1ccc(Cn2c(=O)c3ccccc3n(Cc3ccccc3Br)c2=O)cc1`, for which the CPE inhibition in assay [2] is 0.32% (inactive).

In the case of `Cc1ccc(C)c(NC(=O)[C@@H]2CCCN2S(=O)(=O)c2cccc3cccnc23)c1`, the IC50 in assay [1] was 1.5 µM and 1.7 µM. In the case of `Cc1ccc(Cn2c(=O)n(Cc3ccc(C(=O)NCCCOC(C)C)cc3)c(=O)c3ccccc32)cc1`, the IC50 in assay [1] is 1.66 µM.

In the case of `COCCCNC(=O)c1ccc(Cn2c(=O)c3ccccc3n(Cc3ccccc3F)c2=O)cc1`, the CPE inhibition in assay [2] was 1.77% (inactive).
